Results on one compound are retold here after paper PMC5218480 (PLoS ONE, 2017).

The subject of the assay is MV-4-11 cells. In words: Gene expression microarray analysis (Affymetrix PrimeView) and GSEA. Format: cell-based, human. On the set-up: RFU PODN (11730768_x_at) / Fold change /veh PODN (11730768_x_at) / RFU LINC00158 (11744669_a_at) / Fold change /veh LINC00158 (11744669_a_at) / RFU DUSP10 (11751237_a_at) / Fold change /veh DUSP10 (11751237_a_at) / RFU ID3 (11757404_x_at) / Fold change /veh ID3 (11757404_x_at) / RFU PLEKHG5 (11737974_s_at) / Fold change /veh PLEKHG5 (11737974_s_at) / RFU LRRC4B (11730491_at) / Fold change /veh LRRC4B (11730491_at) / RFU GIMAP4 (11747438_a_at) / Fold change /veh GIMAP4 (11747438_a_at) / RFU KRT8 (11758183_x_at) / Fold change /veh KRT8 (11758183_x_at) / RFU CNN1 (11734310_a_at) / Fold change /veh CNN1 (11734310_a_at) / RFU VPS37D (11726825_at) / Fold change /veh VPS37D (11726825_at) / RFU C10orf10 (11716522_x_at) / Fold change /veh C10orf10 (11716522_x_at) / RFU KIR2DL2 /// KIR2DL4 /// KIR2DL5A /// KIR2DL5B /// KIR2DS1 /// KIR2DS2 /// KIR2DS3 /// KIR2DS4 /// KIR3DL3 /// KIR3DL3 /// KIR3DS1 (11738374_at) / Fold change /veh KIR2DL2 /// KIR2DL4 /// KIR2DL5A /// KIR2DL5B /// KIR2DS1 /// KIR2DS2 /// KIR2DS3 /// KIR2DS4 /// KIR3DL3 /// KIR3DL3 /// KIR3DS1 (11738374_at) / RFU C1QL1 (11718748_at) / Fold change /veh C1QL1 (11718748_at) / RFU TMPRSS4 (11747572_a_at) / Fold change /veh TMPRSS4 (11747572_a_at) / RFU HAMP (11756126_x_at) / Fold change /veh HAMP (11756126_x_at) / RFU RNFT2 (11725882_a_at) / Fold change /veh RNFT2 (11725882_a_at) / RFU NR4A2 (11747474_a_at) / Fold change /veh NR4A2 (11747474_a_at) / RFU ABCC12 (11746883_a_at) / Fold change /veh ABCC12 (11746883_a_at) / RFU TMEM136 (11760407_x_at) / Fold change /veh TMEM136 (11760407_x_at) / RFU CLDN22 /// WWC2 (11732394_at) / Fold change /veh CLDN22 /// WWC2 (11732394_at) / RFU HLA-DPB1 (11760878_x_at) / Fold change /veh HLA-DPB1 (11760878_x_at) / RFU SPINT1 (11716480_a_at) / Fold change /veh SPINT1 (11716480_a_at) / RFU GAP43 (11754022_s_at) / Fold change /veh GAP43 (11754022_s_at) / RFU A4GNT (11735810_at) / Fold change /veh A4GNT (11735810_at) / RFU PRB3 (11715151_x_at) / Fold change /veh PRB3 (11715151_x_at) / RFU TUBB4B (11761932_at) / Fold change /veh TUBB4B (11761932_at) / RFU CAPN14 (11732068_a_at) / Fold change /veh CAPN14 (11732068_a_at) / RFU TMCC2 (11721928_a_at) / Fold change /veh TMCC2 (11721928_a_at) / RFU IRGQ (11745062_a_at) / Fold change /veh IRGQ (11745062_a_at) / RFU FAM174B (11720279_a_at) / Fold change /veh FAM174B (11720279_a_at) / RFU TMPRSS4 (11748680_a_at) / Fold change /veh TMPRSS4 (11748680_a_at) / RFU FAM212B (11763350_a_at) / Fold change /veh FAM212B (11763350_a_at) / RFU PLEKHG5 (11743358_a_at) / Fold change /veh PLEKHG5 (11743358_a_at) / RFU ZSCAN30 (11745921_a_at) / Fold change /veh ZSCAN30 (11745921_a_at) / RFU CMKLR1 (11741424_a_at) / Fold change /veh CMKLR1 (11741424_a_at) / RFU LOC101060620 /// MAPK8IP1 (11723275_at) / Fold change /veh LOC101060620 /// MAPK8IP1 (11723275_at) / RFU SPTSSB (11747773_x_at) / Fold change /veh SPTSSB (11747773_x_at) / RFU PRSS12 (11739890_at) / Fold change /veh PRSS12 (11739890_at) / RFU BIN1 (11741810_x_at) / Fold change /veh BIN1 (11741810_x_at) / RFU WNT11 (11732464_a_at) / Fold change /veh WNT11 (11732464_a_at) / RFU C10orf10 (11716521_a_at) / Fold change /veh C10orf10 (11716521_a_at) / RFU C5orf56 (11738089_at) / Fold change /veh C5orf56 (11738089_at) / RFU CYB561 (11721691_x_at) / Fold change /veh CYB561 (11721691_x_at) / RFU ANKRD19P (11752326_a_at) / Fold change /veh ANKRD19P (11752326_a_at) / RFU OR2T12 /// OR2T33 /// OR2T8 (11738714_s_at) / Fold change /veh OR2T12 /// OR2T33 /// OR2T8 (11738714_s_at) / RFU VCAN (11748164_a_at) / Fold change /veh VCAN (11748164_a_at) / RFU JSRP1 (11732532_at) / Fold change /veh JSRP1 (11732532_at) / RFU KRTAP10-11 (11738290_x_at) / Fold change /veh KRTAP10-11 (11738290_x_at) / RFU MYO3A (11730013_a_at) / Fold change /veh MYO3A (11730013_a_at) / RFU EBF3 (11725865_a_at) / Fold change /veh EBF3 (11725865_a_at) / RFU CAMK2N1 (11719241_x_at) / Fold change /veh CAMK2N1 (11719241_x_at) / RFU C5orf56 (11738088_a_at) / Fold change /veh C5orf56 (11738088_a_at) / RFU OLFML3 (11715873_a_at) / Fold change /veh OLFML3 (11715873_a_at) / RFU LOC100653217 /// NTM (11731650_a_at) / Fold change /veh LOC100653217 /// NTM (11731650_a_at) / RFU MAPK11 (11762145_a_at) / Fold change /veh MAPK11 (11762145_a_at) / RFU FIZ1 (11724087_x_at) / Fold change /veh FIZ1 (11724087_x_at) / RFU OASL (11726364_x_at) / Fold change /veh OASL (11726364_x_at) / RFU SOX15 (11748057_x_at) / Fold change /veh SOX15 (11748057_x_at) / RFU CD79A (11719716_a_at) / Fold change /veh CD79A (11719716_a_at) / RFU HIST1H1D (11736915_at) / Fold change /veh HIST1H1D (11736915_at) / RFU CASKIN2 (11723855_a_at) / Fold change /veh CASKIN2 (11723855_a_at) / RFU LOC730098 (11760151_x_at) / Fold change /veh LOC730098 (11760151_x_at) / RFU OR4N2 (11742367_at) / Fold change /veh OR4N2 (11742367_at) / RFU PRRT2 (11749266_a_at) / Fold change /veh PRRT2 (11749266_a_at) / RFU SNX32 (11753110_a_at) / Fold change /veh SNX32 (11753110_a_at) / RFU CDHR5 (11726645_a_at) / Fold change /veh CDHR5 (11726645_a_at) / RFU RCAN1 (11760418_a_at) / Fold change /veh RCAN1 (11760418_a_at) / RFU FAM167A (11723789_a_at) / Fold change /veh FAM167A (11723789_a_at) / RFU FAM26E (11764081_at) / Fold change /veh FAM26E (11764081_at) / RFU ISYNA1 (11749810_s_at) / Fold change /veh ISYNA1 (11749810_s_at) / RFU ACY1 (11761880_at) / Fold change /veh ACY1 (11761880_at) / RFU 11764098_at / Fold change /veh 11764098_at / RFU SAMD14 (11745864_x_at) / Fold change /veh SAMD14 (11745864_x_at) / RFU NPB (11741838_a_at) / Fold change /veh NPB (11741838_a_at) / RFU TMPRSS6 (11731388_a_at) / Fold change /veh TMPRSS6 (11731388_a_at) / RFU KRTAP10-2 (11738614_at) / Fold change /veh KRTAP10-2 (11738614_at) / RFU ARHGAP8 /// PRR5-ARHGAP8 (11727945_x_at) / Fold change /veh ARHGAP8 /// PRR5-ARHGAP8 (11727945_x_at) / RFU KRTAP5-7 /// NADSYN1 (11734609_at) / Fold change /veh KRTAP5-7 /// NADSYN1 (11734609_at) / RFU RASL12 (11751679_a_at) / Fold change /veh RASL12 (11751679_a_at) / RFU CDKN2B (11736163_a_at) / Fold change /veh CDKN2B (11736163_a_at) / RFU PRF1 (11729649_at) / Fold change /veh PRF1 (11729649_at) / RFU, ZNF638 /// ZNF638-IT1 / Fold change vs veh, ZNF638 /// ZNF638-IT1 / RFU, PANK3 / Fold change vs veh, PANK3 / RFU, SH3YL1 / Fold change vs veh, SH3YL1 / RFU, ZEB2 / Fold change vs veh, ZEB2 / RFU, NRIP1 / Fold change vs veh, NRIP1 / RFU, PTTG1IP / Fold change vs veh, PTTG1IP / RFU, CAPN2 / Fold change vs veh, CAPN2 / RFU, MED14 / Fold change vs veh, MED14 / RFU, SNORA58 / Fold change vs veh, SNORA58 / RFU, C1orf63 / Fold change vs veh, C1orf63 / RFU, LRRFIP1 / Fold change vs veh, LRRFIP1 / RFU, NDUFAF7 / Fold change vs veh, NDUFAF7 / RFU, SLC12A2 / Fold change vs veh, SLC12A2 / RFU, IBTK / Fold change vs veh, IBTK / RFU, ESF1 / Fold change vs veh, ESF1 / Fold change vs veh, TMEM50B / RFU, TAOK1 / Fold change vs veh, TAOK1 / RFU, ACBD3 / Fold change vs veh, ACBD3 / RFU, TMA16 / Fold change vs veh, TMA16 / RFU, RWDD3 / Fold change vs veh, RWDD3 / RFU, BCAT1 / Fold change vs veh, BCAT1 / RFU, EDEM3 / Fold change vs veh, EDEM3 / RFU, TMEM33 / Fold change vs veh, TMEM33 / RFU, WDR75 / Fold change vs veh, WDR75 / RFU, AHCTF1 / Fold change vs veh, AHCTF1 / RFU, TFRC / Fold change vs veh, TFRC / RFU, ZDHHC17 / Fold change vs veh, ZDHHC17 / RFU, NOM1 / Fold change vs veh, NOM1 / RFU, ARL8B / Fold change vs veh, ARL8B / RFU, ZBTB11 / Fold change vs veh, ZBTB11 / RFU, TAMM41 / Fold change vs veh, TAMM41 / RFU, KIAA1704 /// LOC100996395 / Fold change vs veh, KIAA1704 /// LOC100996395 / RFU, ING1 / Fold change vs veh, ING1 / RFU, TRMT61B / Fold change vs veh, TRMT61B / RFU, FUBP3 / Fold change vs veh, FUBP3 / RFU, TP53 / Fold change vs veh, TP53 / RFU, TNKS2 / Fold change vs veh, TNKS2 / RFU, ZFP14 / Fold change vs veh, ZFP14 / RFU, ACTR2 / Fold change vs veh, ACTR2 / RFU, PPP3R1 / Fold change vs veh, PPP3R1 / RFU, PIK3R1 / Fold change vs veh, PIK3R1 / RFU, HNRNPA1 / Fold change vs veh, HNRNPA1 / RFU, RNF170 / Fold change vs veh, RNF170 / RFU, ZNF28 / Fold change vs veh, ZNF28 / RFU, RNGTT / Fold change vs veh, RNGTT / RFU, OGT / Fold change vs veh, OGT / RFU, BRD1 / Fold change vs veh, BRD1 / RFU, MARS / Fold change vs veh, MARS / RFU, ZNF655 / Fold change vs veh, ZNF655 / RFU, FAHD1 / Fold change vs veh, FAHD1 / RFU, BDP1 / Fold change vs veh, BDP1 / RFU, LRRCC1 / Fold change vs veh, LRRCC1 / RFU, ARID1A / Fold change vs veh, ARID1A / RFU, ZNF146 / Fold change vs veh, ZNF146 / RFU, ZNF330 / Fold change vs veh, ZNF330 / RFU, GPN3 / Fold change vs veh, GPN3 / RFU, C9orf123 / Fold change vs veh, C9orf123 / RFU, N4BP2L2 / Fold change vs veh, N4BP2L2 / RFU, ARFIP1 / Fold change vs veh, ARFIP1 / RFU, FAM179B / Fold change vs veh, FAM179B / RFU, BCL10 / Fold change vs veh, BCL10 / RFU, UHRF1BP1L / Fold change vs veh, UHRF1BP1L / RFU, BET1 / Fold change vs veh, BET1 / RFU, CNOT2 / Fold change vs veh, CNOT2 / RFU, ZNF268 / Fold change vs veh, ZNF268 / Fold change vs veh, ZNF507 / RFU, DGCR2 / Fold change vs veh, DGCR2 / RFU, WDSUB1 / Fold change vs veh, WDSUB1 / Fold change vs veh, HSP90B1 /// MIR3652 / RFU, ADSS / Fold change vs veh, ADSS / RFU, GK / Fold change vs veh, GK / RFU, ZNF148 / Fold change vs veh, ZNF148 / RFU, TAF9 / Fold change vs veh, TAF9 / RFU, SLC1A5 / Fold change vs veh, SLC1A5 / RFU, SLMO2 / Fold change vs veh, SLMO2 / RFU, ABCC4 / Fold change vs veh, ABCC4 / RFU, LOC101060439 /// RAP1B / Fold change vs veh, LOC101060439 /// RAP1B / RFU, RFX7 / Fold change vs veh, RFX7 / RFU, GTPBP10 / Fold change vs veh, GTPBP10 / RFU, CNEP1R1 / Fold change vs veh, CNEP1R1 / RFU, BIVM-ERCC5 /// ERCC5 / Fold change vs veh, BIVM-ERCC5 /// ERCC5 / RFU, ILF3 / Fold change vs veh, ILF3 / RFU 11762660_at / Fold change /veh 11762660_at / RFU VCAN (11757783_s_at) / Fold change /veh VCAN (11757783_s_at) / RFU DDX43 (11728927_at) / Fold change /veh DDX43 (11728927_at) / RFU KRT8 (11758188_x_at) / Fold change /veh KRT8 (11758188_x_at) / RFU NKD1 (11759106_at) / Fold change /veh NKD1 (11759106_at) / RFU SRD5A1 (11742802_a_at) / Fold change /veh SRD5A1 (11742802_a_at) / RFU TPSAB1 /// TPSB2 (11721975_s_at) / Fold change /veh TPSAB1 /// TPSB2 (11721975_s_at) / RFU GSTM3 (11746129_a_at) / Fold change /veh GSTM3 (11746129_a_at) / RFU IL23R (11737362_x_at) / Fold change /veh IL23R (11737362_x_at) / RFU TMEM51 (11727254_a_at) / Fold change /veh TMEM51 (11727254_a_at) / RFU PIWIL2 (11732686_x_at) / Fold change /veh PIWIL2 (11732686_x_at) / RFU ORM1 (11744905_x_at) / Fold change /veh ORM1 (11744905_x_at) / RFU CCDC152 (11743942_at) / Fold change /veh CCDC152 (11743942_at) / RFU ECM1 (11717891_a_at) / Fold change /veh ECM1 (11717891_a_at) / RFU IL23R (11748794_a_at) / Fold change /veh IL23R (11748794_a_at) / RFU TNFAIP8L3 (11732012_x_at) / Fold change /veh TNFAIP8L3 (11732012_x_at) / RFU MBOAT4 (11741988_at) / Fold change /veh MBOAT4 (11741988_at) / RFU 11764193_at / Fold change /veh 11764193_at / RFU TMEM53 (11763286_at) / Fold change /veh TMEM53 (11763286_at) / RFU MAGEB2 (11727129_at) / Fold change /veh MAGEB2 (11727129_at) / RFU TMEM200A (11744735_a_at) / Fold change /veh TMEM200A (11744735_a_at) / RFU CCDC152 (11751479_a_at) / Fold change /veh CCDC152 (11751479_a_at) / RFU FAM211A (11726209_a_at) / Fold change /veh FAM211A (11726209_a_at) / RFU RGS16 (11746705_a_at) / Fold change /veh RGS16 (11746705_a_at) / RFU VCAN (11755009_s_at) / Fold change /veh VCAN (11755009_s_at) / RFU RHOB (11743442_s_at) / Fold change /veh RHOB (11743442_s_at) / RFU RGS16 (11720943_a_at) / Fold change /veh RGS16 (11720943_a_at) / RFU RGS16 (11720944_at) / Fold change /veh RGS16 (11720944_at) / RFU, VPS4B / Fold change vs veh, VPS4B / RFU, CREB1 / Fold change vs veh, CREB1 / RFU, DNAJC13 / Fold change vs veh, DNAJC13 / RFU, GNAQ / Fold change vs veh, GNAQ / RFU, CDK5R1 / Fold change vs veh, CDK5R1 / RFU, ZRANB3 / Fold change vs veh, ZRANB3 / RFU, CUL4A / Fold change vs veh, CUL4A / RFU, CCNY / Fold change vs veh, CCNY / RFU, UFL1 / Fold change vs veh, UFL1 / RFU, COG3 / Fold change vs veh, COG3 / RFU, DIAPH2 / Fold change vs veh, DIAPH2 / RFU, SKA2 / Fold change vs veh, SKA2 / RFU, AFF3 / Fold change vs veh, AFF3 / RFU, LMF1 / Fold change vs veh, LMF1 / RFU, IPO11 / Fold change vs veh, IPO11 / RFU, DFFB / Fold change vs veh, DFFB / RFU, FOXP1 / Fold change vs veh, FOXP1 / RFU, CARD8 / Fold change vs veh, CARD8 / RFU, STRN3 / Fold change vs veh, STRN3 / RFU, ADK / Fold change vs veh, ADK / RFU, RASSF2 / Fold change vs veh, RASSF2 / RFU, WIPF1 / Fold change vs veh, WIPF1 / RFU, LARP1B / Fold change vs veh, LARP1B / RFU, RASA1 / Fold change vs veh, RASA1 / RFU, RB1 / Fold change vs veh, RB1 / RFU, PPFIA1 / Fold change vs veh, PPFIA1 / RFU, MAT2A / Fold change vs veh, MAT2A / RFU, CCT5 / Fold change vs veh, CCT5 / RFU, WDR92 / Fold change vs veh, WDR92 / RFU, CUX1 / Fold change vs veh, CUX1 / RFU, TTC7A / Fold change vs veh, TTC7A / RFU, TMEM135 / Fold change vs veh, TMEM135 / RFU, DEPTOR / Fold change vs veh, DEPTOR / RFU, CPM / Fold change vs veh, CPM / RFU, DNAJB6 / Fold change vs veh, DNAJB6 / RFU, CACNA2D3 / Fold change vs veh, CACNA2D3 / RFU, DTX4 / Fold change vs veh, DTX4 / RFU, TFCP2 / Fold change vs veh, TFCP2 / RFU, GMCL1 /// GMCL1P1 / Fold change vs veh, GMCL1 /// GMCL1P1 / RFU, AEBP2 / Fold change vs veh, AEBP2 / RFU, SNHG1 /// SNORD22 /// SNORD25 /// SNORD26 /// SNORD27 /// SNORD28 /// SNORD29 /// SNORD31 / Fold change vs veh, SNHG1 /// SNORD22 /// SNORD25 /// SNORD26 /// SNORD27 /// SNORD28 /// SNORD29 /// SNORD31 / Fold change (Aza/veh), C12orf56 (ProbeSet 11735607_a_at) / Fold change (ACY-1035/veh), C12orf56 (ProbeSet 11735607_a_at) / Fold change (Aza/veh), FGFR1OP (ProbeSet 11751329_s_at) / Fold change (ACY-1035/veh), FGFR1OP (ProbeSet 11751329_s_at) / Fold change (Aza/veh), VPS36 (ProbeSet 11739960_a_at) / Fold change (ACY-1035/veh), VPS36 (ProbeSet 11739960_a_at) / RFU SYPL1 (11715823_x_at) / Fold change /veh SYPL1 (11715823_x_at) / RFU IGFBP7 (11715501_s_at) / Fold change /veh IGFBP7 (11715501_s_at) / RFU REEP3 (11722064_at) / Fold change /veh REEP3 (11722064_at) / RFU IGLL1 (11728026_x_at) / Fold change /veh IGLL1 (11728026_x_at): dose or concentration left out as unconfirmed. The note with it: ProbeSet 11727958_a_at; LIST B.

The structures appear in SMILES notation.

On to `Nc1ccc(-c2cccs2)cc1NC(=O)c1ccc2c(c1)cc(C1CC1)n2CCN1CCOCC1` [ACY-1035], for which the “Fold change vs veh, ING1” value was 1.02.
